Measured values as given in US8129356B2, “Bmx mediated signal transduction in irradiated vascular endothelium” (Vanderbilt University, priority 2007, dated 2012).
“Also recorded” adds a separate entry of the source.

What was measured:
Bmx [1] = target: T1, Bmx (Homo sapiens, UniProt P51813); format: cell-based; details: 30 μM pre-incubation, 3 Gy
T1 construct: host or cells: HUVEC
T1 sequence (P51813 1-675): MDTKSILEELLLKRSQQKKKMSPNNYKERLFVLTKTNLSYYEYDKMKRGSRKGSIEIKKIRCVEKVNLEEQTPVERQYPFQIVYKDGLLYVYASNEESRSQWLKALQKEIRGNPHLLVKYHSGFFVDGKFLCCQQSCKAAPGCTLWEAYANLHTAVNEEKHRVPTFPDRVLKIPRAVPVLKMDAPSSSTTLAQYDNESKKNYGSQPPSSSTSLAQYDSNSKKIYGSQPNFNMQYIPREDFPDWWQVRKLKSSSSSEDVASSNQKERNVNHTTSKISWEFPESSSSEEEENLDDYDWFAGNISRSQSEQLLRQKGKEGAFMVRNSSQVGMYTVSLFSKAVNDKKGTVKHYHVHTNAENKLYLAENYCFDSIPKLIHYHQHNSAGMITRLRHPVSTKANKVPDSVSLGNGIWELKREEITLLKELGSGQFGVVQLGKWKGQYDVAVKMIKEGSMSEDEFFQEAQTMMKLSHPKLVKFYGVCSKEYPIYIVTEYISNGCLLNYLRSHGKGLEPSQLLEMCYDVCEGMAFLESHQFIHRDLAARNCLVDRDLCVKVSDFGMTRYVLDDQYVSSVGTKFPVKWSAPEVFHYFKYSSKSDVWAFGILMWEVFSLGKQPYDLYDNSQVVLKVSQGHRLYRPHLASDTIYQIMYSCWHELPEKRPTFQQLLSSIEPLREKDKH
Protocol: Immunoprecipitation and in vitro kinase assay. HUVECs of passage 3-6 were grown to 70-80% confluency and then serum starved for 5 hours. The cells were then treated with sham or 3 Gy irradiation. After treatment, the cells were incubated at 37° C. with 5% CO2 for the indicated times. For inhibition studies, inhibitor was added at a 1:1000 dilution 60 minutes prior to irradiation. Following incubation, the tissue culture dishes were placed on ice and washed twice with ice cold 1× Phosphate-buffered Saline (PBS) followed by lysis using 400 μM-PER containing protease and phosphatase inhibitors (Sigma-Aldrich Co.) for 5 minutes. The cells were scraped and transferred to Eppendorf tubes, vortexed for 20 seconds, and incubated on ice for 30 minutes. After clearing the lysate by centrifugation at 15,000 g for 15 minutes at 4° C., the supernatant was quantified for protein concentration using the bicinchoninic acid (BCA) method prior to immunoprecipitation. Immunoprecipitation was performed using the CATCH AND RELEASE® v 2.0 system (Upstate Group, LLC, Charlottesville, Va., United States of America) according to manufacturer's protocol with some modification.
Briefly, spin columns containing binding resin were prepared by washing twice with 1× wash buffer (2000 g/30 seconds). […] This was added to the capped spin column which was rotated end-over-end overnight at 4° C. […]

HUVEC [2] = assay: Clonogenic survival assay in HUVEC; format: cell-based, human; details: 30 μM
Protocol: Clonogenic survival. LLC's or passage 3-6 HUVECs were grown to 70-80% confluency. Cells were washed with 1×PBS, trypsin suspended, and were counted and adjusted to specific densities for each condition. The cells were plated on tissue culture plates and allowed to attach for 4 hours. […] Media was changed after irradiation. 10-14 days after irradiation, the plates were fixed with 70% ethanol and stained with 1% methylene blue. Colonies were then counted using a dissection microscopy with positive colonies containing at least 50 cells. Surviving fraction (SF) was calculated by the equation (number of colonies formed/number of cells plated)/(number of colonies for sham irradiated group/number of cells plated). Dose enhancing ratios were calculated by dividing the dose (Gy) for radiation alone by the dose for radiation plus treatment (normalized for plating efficiency of treatment) for which a SF of 0.2 is achieved.

HUVEC [3] = assay: Apoptosis assay, Annexin V/propidium iodide flow cytometry; format: cell-based, human; details: 24 hours
Protocol: Apoptosis assays. HUVEC were grown to 70-80% confluency prior to treatment with LFM-A13 or DMSO control. Cells were then irradiated with 0 or 3 Gy and harvested 24 hours after irradiation. Annexin V-FITC Apoptosis Detection kit (BD PharMingen, San Diego, Calif., United States of America) was used to stain cells (propidium iodide (50 ng) and annexin V-FITC (5 ng) were added to 10^5 cells) for flow cytometry according to manufacturer's protocol. For each treatment, the percent of cells undergoing apoptosis (±SE) was calculated. Camptothecin (5 μmol/L) treatment for 6 hours served as positive control

HUVEC [4] = assay: Apoptosis assay, DAPI staining of nuclei; format: cell-based, human; details: 30 μM plus 3 or 6 Gy, 24 hours
Protocol: HUVEC were also assayed for apoptosis using a 4′,6-Diamidino-2-phenylindole (DAPI) staining of the nuclei to identify cells undergoing morphological changes. […] Cells were returned to the incubator for an additional 24 hr prior to DAPI staining. Multiple high powered fields (at least 7) were examined by an observer who was blinded to the experimental conditions for each of the cultures. […] The mean and standard error were calculated for each treatment group.

HUVEC [5] = assay: Endothelial closure assay (migration across a gap); format: cell-based, human
Protocol: Endothelial closure assay. HUVEC of passage 3-6 were grown on glass slides and were subjected to gap formation as described previously (Cuneo et al., 2007). Cells were treated with LFM-A13 or DMSO control prior to 0 or 3 Gy and incubated for the indicated times. Photographs of cell defect and surrounding cells were taken and relative cell density within the defect was calculated as follows: (number of cells/original cell defect area)/(number of cells/surrounding area).

HUVEC [6] = assay: Endothelial cell tubule formation assay on MATRIGEL; format: cell-based, human; details: 30 μM plus 3 Gy, vs either treatment alone
Protocol: Endothelial cell tubule formation assay. HUVEC of passage 3-6 were grown to 70-80% confluency. Cells were then washed with 1×PBS and suspended by trypsinization. Cells were counted and adjusted to 2.5-5×10^4 cells/ml in media. 75 μl MATRIGEL™ (BD Biosciences) were plated into each well of a 96 well plate and allowed to polymerize at 37° C. Cell suspensions (200 μl; […]) were added to each well. After thirty minutes, DMSO control or LFM-A13 was added. Thirty minutes later, dishes were treated with sham or 3 Gy and were then incubated until tubules had formed in control plates (4-6 hours). Digital photographs were taken of individual wells and tubules were counted by an observer blinded to the treatment conditions. The mean and standard error were calculated (n=3).

LLC tumor vasculature = assay: Tumor vascular window model; format: in vivo, C57BL/6 mice
Protocol: Tumor vascular window model. The tumor vascular window model technique is described in Edwards et al., 2002. Briefly, three mice for each group had tumors grown within a vascular window such that tumor vasculature could be visualized within window frames containing a coordinate system for serial photography. Animals were treated with LFM-A13 by i.p. injection 60 minutes prior to 2 Gy irradiation using an 80 kVp superficial X-ray machine (Pantak X-ray Generator; East Haven, Conn., United States of America). Serial color photographs were taken to document blood vessel appearance on days 0-7. Photographs were scanned and processed using ADOBE® PHOTOSHOP® software (Adobe Systems Inc., San Jose, Calif., United States of America) to mark the center of vessels, verified by an observer blinded to treatment groups. Vascular length density (VLD) was quantified for each microscopic field using IMAGE-PRO® Plus v. 5.1 software (Media Cybernetics, Inc. Silver Spring, Md., United States of America). The mean and standard error of VLD in each treatment group were calculated and plotted. All animals used were cared for according to Vanderbilt University's Institutional Animal Care and Use Committees guidelines.

[7] = tested on: LLC hind limb tumor blood vessels; assay: Tumor immunohistochemistry (anti-CD34) in hind limb xenograft; format: in vivo, C57BL/6 mice; details: 50 mg/kg i.p. daily, 45 minutes before 3 Gy, five treatments
Protocol: Tumor immunohistochemistry. LLC's were subcutaneously injected into the hind limb of C57BL/6 mice to form xenografts. When tumors grew to 200 mm^3, (approximately 7 days) the mice were treated with five consecutive daily treatments of i.p. LFM-A13 followed 45 minutes later by 3 Gy irradiation using an 80 kVp superficial x-ray generator. Twelve hours following the last radiation treatment, mice were sacrificed and tumors were harvested, fixed in paraffin, and sectioned by the Vanderbilt University Immunohistochemistry Core Facility as described previously (see Cuneo et al., 2007). Immunostaining was with goat anti-CD34 (Santa Cruz Biotechnology) and microvascular photos were analyzed using IMAGE-PRO® software with pixel number quantified.

[8] = tested on: Lewis Lung Carcinoma (LLC) cell line; assay: Clonogenic survival assay in LLC; format: cell-based; details: prior to 0, 2, 4, or 6 Gy
Protocol: Clonogenic survival. LLC's or passage 3-6 HUVECs were grown to 70-80% confluency. Cells were washed with 1×PBS, trypsin suspended, and were counted and adjusted to specific densities for each condition. The cells were plated on tissue culture plates and allowed to attach for 4 hours. LFM-A13 or DMSO was added at a 1:1000 dilution followed 60 min later by 0, 2, 4 or 6 Gy. Media was changed after irradiation. 10-14 days after irradiation, the plates were fixed with 70% ethanol and stained with 1% methylene blue. Colonies were then counted using a dissection microscopy with positive colonies containing at least 50 cells. Surviving fraction (SF) was calculated by the equation (number of colonies formed/number of cells plated)/(number of colonies for sham irradiated group/number of cells plated). Dose enhancing ratios were calculated by dividing the dose (Gy) for radiation alone by the dose for radiation plus treatment (normalized for plating efficiency of treatment) for which a SF of 0.2 is achieved.

LLC hind limb tumors = assay: Tumor growth delay; format: in vivo, C57BL/6 mice; details: 5 consecutive days
Protocol: Tumor growth delay. LLC's were subcutaneously injected into the hind limb of C57/BL6 mice to form xenografts. When tumors grew to 200 mm^3, (approximately 7 days) the mice were treated with five consecutive daily treatments of i.p. LFM-A13 followed 45 minutes later by 3 Gy irradiation using an 80 kVp superficial x-ray generator. Serial measurements of tumor dimensions were taken by caliper and tumor volume was calculated using the modified ellipsoid formula (length×width×depth)/2. The mean and standard error were plotted using Microsoft Excel software.

Bmx [9] = target: T1, Bmx; details: HUVEC, dose of 25 μM; cited from earlier work
[10] = murine studies, previously published; cited from earlier work
HUVEC [11] = assay: In vitro studies disclosed herein, comparison of Tec family inhibitors; format: cell-based, human

Row | SMILES | radiation-induced Bmx activation (autophosphorylation) (Bmx [1]) | radiosensitization (surviving fraction, survival curve shift) (HUVEC [2]; 45 minutes prior to 0, 2, 4, or 6 Gy, colonies over 10 days) | dose enhancing ratio (DER) (HUVEC [2]; dose ratio at SF of 0.2) | apoptosis, combination with 3 Gy (HUVEC [3]; 30 μM plus 3 Gy) | early and late apoptosis, drug alone (HUVEC [3]; 30 μM, sham irradiation) | percent of apoptotic cells, combination with irradiation (HUVEC [4]) | endothelial cell closure (relative cell density in gap), drug alone (HUVEC [5]; 30 μM alone, 12 hours and 24 hours, vs vehicle control) | endothelial cell closure, combination with 3 Gy (HUVEC [5]; 30 μM for 45 minutes prior to 3 Gy, 12 and 24 hours) | number of tubules formed, combination with 3 Gy (HUVEC [6]) | tumor vascular window blood vessels, drug alone (LLC tumor vasculature; 50 mg/kg i.p. alone) | tumor blood vessels (mean vascular length density), combination with 2 Gy (LLC tumor vasculature; single 50 mg/kg i.p. prior to 2 Gy) | blood vessel formation (CD34 staining), combination with 3 Gy [7] | clonogenic survival compared to DMSO control [8] | tumor growth delay, combination with 3 Gy (LLC hind limb tumors; 50 mg/kg i.p. 45 minutes prior to 3 Gy) | tumor growth delay, drug alone (LLC hind limb tumors; 50 mg/kg i.p., sham irradiation) | VEGF induced signaling through Bmx inhibition (Bmx [9]) | tolerability [10] | effectiveness relative to LFM-A13 (HUVEC [11])
1 | C/C(O)=C(\C#N)C(=O)Nc1cc(Br)ccc1Br [LFM-A13, (2Z)-2-cyano-N-(2,5-dibromophenyl)-3-hydroxy-2-butenamide] | attenuated the activation of Bmx | radiosensitized HUVEC | 1.47 | statistically significant (p<0.001 vs. LFM-A13 or 3 Gy alone) increase in apoptosis | not capable of shifting cells into either early (Q4-1) or late (Q2-1) apoptosis | enhancement of apoptosis | minimal effect on attenuating endothelial cell closure | greater than additive effect | significant reduction (p<0.005) in tubules formed | minimally inhibited | dramatic reduction in tumor blood vessels | most effective at attenuating blood vessel formation | no difference in clonogenic survival | statistically significant enhancement of growth delay; also recorded: more than additive | small growth delay | block VEGF induced signaling | well-tolerated | –
2 | CC1=C(O)C(=O)[C@@H]2O[C@@H]2C1=O [terreic acid] | – | – | – | – | – | – | – | – | – | – | – | – | – | – | – | – | – | at least as effective as LFM-A13
